Laboratory results as given in patent US9499538B2, “Estrogen receptor modulators and uses thereof” (Seragon Pharmaceuticals, Inc., priority 2012, dated 2016).

Experiments:
ER-α in MCF-7 cells = target: T1, ER-α in MCF-7 cells (Homo sapiens, UniProt P03372); test: Breast Cancer Cell ER-α In Cell Western Assay (SP1); assay type: cell-based; conditions: 4 or 24 hr post compound addition; for Emax: MCF7, SP1 antibody, read-out: ER-α In Cell Western Assay (SP1) Max Response; for DC50: SP1 antibody, read-out: ER-α In Cell Western Assay (SP1) IC50
T1 construct: endogenous in cells; host or cells: MCF-7
T1 sequence (P03372 1-595): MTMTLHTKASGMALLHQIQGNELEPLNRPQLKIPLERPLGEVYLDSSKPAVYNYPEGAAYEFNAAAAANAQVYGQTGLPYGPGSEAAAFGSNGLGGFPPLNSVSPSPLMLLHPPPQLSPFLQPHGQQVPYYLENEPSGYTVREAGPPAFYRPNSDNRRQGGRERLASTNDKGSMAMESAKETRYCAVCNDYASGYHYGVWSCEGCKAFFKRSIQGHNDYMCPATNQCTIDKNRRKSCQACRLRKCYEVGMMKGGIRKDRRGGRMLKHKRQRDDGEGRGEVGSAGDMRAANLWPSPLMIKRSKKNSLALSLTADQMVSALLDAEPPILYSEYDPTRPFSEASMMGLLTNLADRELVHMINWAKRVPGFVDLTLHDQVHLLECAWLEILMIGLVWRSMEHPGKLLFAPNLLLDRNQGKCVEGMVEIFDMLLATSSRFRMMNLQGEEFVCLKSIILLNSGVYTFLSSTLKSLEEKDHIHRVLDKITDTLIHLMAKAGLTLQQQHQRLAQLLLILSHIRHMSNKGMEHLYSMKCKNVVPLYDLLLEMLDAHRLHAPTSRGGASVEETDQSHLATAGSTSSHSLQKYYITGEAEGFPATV
Procedure: MCF-7 cells were adjusted to a concentration of 200,000 cells per mL in RPMI containing 10% charcoal-stripped FBS and 20 mM HEPES. 16 microliters of the cell suspension (3200 cells) was added to each well of a poly-D-lysine 384 well plate, and the cells were incubated overnight to allow the cells to adhere. The following day an eleven point, serial semilog dilution of each compound was added to the cells in 16 μL at a final concentration ranging from 0.3-0.000003 μM. At 4 or 24 hr post compound addition, the cells were fixed (10% formalin in PBS) for 20 minutes. Cells were permeablized in PBS 0.1% Triton and blocked with LICOR blocking buffer (50 μl/well, 90′). The wells were then incubated overnight at 4° C. with SP1 rabbit monoclonal Ab (Thermo Scientific) diluted 1:1000 in LICOR blocking buffer/0.1% Tween-20. Wells which were treated with blocking buffer with Tween but no antibody were used as a background control. Wells were washed with 0.1% Tween-20/PBS and then incubated in goat anti-rabbit IRDye™ 800CW (LICOR Inc.; 1:10000) and DRAQ5 DNA dye (1:2000 for 2 mM stock) diluted in LICOR blocking buffer containing 0.1% Tween-20 and 0.01% SDS for 60 minutes. Cells were washed (50 μl/well, 5′ each) in 0.1% Tween-20/PBS. Plates were scanned on a LICOR Odyssey infrared imaging system. Integrated intensities in the 800 nm channel and 700 nm channel were measured to determine levels of ER and DNA respectively. Percent ER levels were determined as follows: (Integrated intensity 800 nm sample/integrated intensity 700 nm sample)/(Integrated intensity 800 nm untreated cells/integrated intensity 700 nm untreated cells)×100=% ER levels. […]

MCF-7 cells = test: Breast Cancer Cell Viability Assays (MCF-7, CellTiter-Glo); assay type: cell-based; conditions: 5 days' compound exposure; for IC50: Homo sapiens, MCF7, 120 h
Procedure: MCF-7 cells were adjusted to a concentration of 20,000 cells per mL in RPMI containing 10% FBS and 20 mM HEPES. 16 microliters of the cell suspension (320 cells) was added to each well of a 384 well plate, and the cells were incubated overnight to allow the cells to adhere. The following day an eleven point, serial semilog dilution of each compound was added to the cells in 16 μL at a final concentration ranging from 0.3-0.000003 μM. After 5 days' compound exposure, 16 μL of CellTiter-GLo (Promega, Madison Wis.) was added to the cells, and the relative luminescence units (RLUs) of each well were determined. CellTiter-Glo added to 32 μL of medium without cells was used to obtain a background value. The Percent viability of each sample was determined as follows: (RLU sample−RLU background/RLU untreated cells−RLU background)×100=% viability. […]

Row | Structure (SMILES) | Emax (ER-α in MCF-7 cells) [%] | DC50 (ER-α in MCF-7 cells) [nM] | IC50 (MCF-7 cells) [nM] | MCF7 Viability Assay Max Response (MCF-7 cells)
1 | N#Cc1c(/C(=C(/c2ccccc2)C2CCC2)c2ccc(/C=C/C(=O)O)cc2)ccc2[nH]ncc12 [Example 1, (E)-3-(4-((E)-1-(4-Cyano-1H-indazol-5-yl)-2-cyclobutyl-2-phenylvinyl)phenyl)acrylic acid] | ≥ 40 | ≤ 100 | ≤ 100 | ++ (++ = a single % value ≧ 40%)
2 | O=C(O)/C=C/c1ccc(/C(=C(\c2ccccc2)C2CCC2)c2ccc3[nH]ncc3c2Cl)cc1 [Example 2, (E)-3-(4-((E)-1-(4-Chloro-1H-indazol-5-yl)-2-cyclobutyl-2-phenylvinyl)phenyl)acrylic acid] | ≥ 40 | ≤ 100 | ≤ 100 | ++ (++ = a single % value ≧ 40%)
3 | CC/C(=C(/c1ccc(/C=C/C(=O)O)cc1)c1ccc2[nH]ncc2c1C#N)c1ccccc1 [Example 3, (E)-3-(4-((E)-1-(4-Cyano-1H-indazol-5-yl)-2-phenylbut-1-en-1-yl)phenyl)acrylic acid] | ≥ 40 | ≤ 100 | ≤ 100 | ++ (++ = a single % value ≧ 40%)
4 | O=C(O)/C=C/c1ccc(/C(=C(\c2ccccc2)C2CCC2)c2ccc3c(c2)CNC3=O)cc1 [Example 4, (E)-3-(4-((E)-2-Cyclobutyl-1-(1-oxoisoindolin-5-yl)-2-phenylvinyl)phenyl)acrylic acid] | ≥ 40 | ≤ 100 | ≤ 100 | ++ (++ = a single % value ≧ 40%)
5 | CC/C(=C(/c1ccc(/C=C/C(=O)O)cc1)c1ccc2[nH]nc(F)c2c1F)c1ccccc1 [Example 7, (E)-3-(4-((E)-1-(3,4-Difluoro-1H-indazol-5-yl)-2-phenylbut-1-en-1-yl)phenyl)acrylic acid] | ≥ 40 | ≤ 100 | ≤ 100 | ++ (++ = a single % value ≧ 40%)
6 | CC/C(=C(/c1ccc(/C=C/C(=O)O)cc1)c1ccc2[nH]ncc2c1OC)c1ccccc1 [Example 8, (E)-3-(4-((E)-1-(4-Methoxy-1H-indazol-5-yl)-2-phenylbut-1-en-1-yl)phenyl)acrylic acid] | ≥ 40 | ≤ 100 | ≤ 100 | ++ (++ = a single % value ≧ 40%)
7 | COc1c(/C(=C(/c2ccccc2)C2CCC2)c2ccc(/C=C/C(=O)O)cc2)ccc2[nH]ncc12 [Example 9, (E)-3-(4-((E)-2-Cyclobutyl-1-(4-methoxy-1H-indazol-5-yl)-2-phenylvinyl)phenyl)acrylic acid] | ≥ 40 | ≤ 100 | ≤ 100 | ++ (++ = a single % value ≧ 40%)
8 | CC(C)/C(=C(/c1ccc(/C=C/C(=O)O)cc1)c1ccc2[nH]nc(F)c2c1)c1ccccc1 [Example 15, (E)-3-(4-((E)-1-(3-Fluoro-1H-indazol-5-yl)-3-methyl-2-phenylbut-1-en-1-yl)phenyl)acrylic acid] | ≥ 40 | ≤ 100 | ≤ 100 | ++ (++ = a single % value ≧ 40%)
9 | CC/C(=C(/c1ccc(/C=C/C(=O)O)cc1)c1ccc2scnc2c1C#N)c1ccccc1 [Example 19, (E)-3-(4-((E)-1-(4-Cyanobenzo[d]thiazol-5-yl)-2-phenylbut-1-en-1-yl)phenyl)acrylic acid] | ≥ 40 | ≤ 100 | ≤ 100 | ++ (++ = a single % value ≧ 40%)

Further lines, with some results ahead:

Row | Emax (ER-α in MCF-7 cells) [%] | DC50 (ER-α in MCF-7 cells) [nM] | IC50 (MCF-7 cells) [nM] | Structure (SMILES) | MCF7 Viability Assay Max Response (MCF-7 cells)
10 | ≥ 40 | ≤ 100 | ≤ 100 | O=C(O)/C=C/c1ccc(/C(=C(\c2ccc(F)cc2Cl)C2CCC2)c2ccc3c(c2)CNC3=O)cc1 [Example 5, (E)-3-(4-((E)-2-(2-Chloro-4-fluorophenyl)-2-cyclobutyl-1-(1-oxoisoindolin-5-yl)vinyl)phenyl)acrylic acid] | ++ (++ = a single % value ≧ 40%)
11 | ≥ 40 | ≤ 100 | ≤ 100 | CC/C(=C(/c1ccc(/C=C/C(=O)O)cc1)c1ccc2[nH]ncc2c1C#N)c1ccc(F)cc1Cl [Example 6, (E)-3-(4-((E)-2-(2-Chloro-4-fluorophenyl)-1-(4-cyano-1H-indazol-5-yl)but-1-en-1-yl)phenyl)acrylic acid] | ++ (++ = a single % value ≧ 40%)
12 | ≥ 40 | ≤ 100 | ≤ 100 | N#Cc1c(/C(=C(/c2ccccc2F)C2CCC2)c2ccc(/C=C/C(=O)O)cc2)ccc2[nH]ncc12 [Example 10, (E)-3-(4-((E)-1-(4-Cyano-1H-indazol-5-yl)-2-cyclobutyl-2-(2-fluorophenyl)vinyl)phenyl)acrylic acid] | ++ (++ = a single % value ≧ 40%)
13 | ≥ 40 | ≤ 100 | ≤ 100 | Cc1ccccc1/C(=C(\c1ccc(/C=C/C(=O)O)cc1)c1ccc2[nH]ncc2c1C#N)C1CCC1 [Example 11, (E)-3-(4-((E)-1-(4-Cyano-1H-indazol-5-yl)-2-cyclobutyl-2-(o-tolyl)vinyl)phenyl)acrylic acid] | ++ (++ = a single % value ≧ 40%)
14 | ≥ 40 | ≤ 100 | ≤ 100 | N#Cc1c(/C(=C(/c2ccccc2)C2CCC2)c2ccc(/C=C/C(=O)O)cc2)ccc2[nH]nc(F)c12 [Example 12, (E)-3-(4-((E)-1-(4-Cyano-3-fluoro-1H-indazol-5-yl)-2-cyclobutyl-2-phenylvinyl)phenyl)acrylic acid] | ++ (++ = a single % value ≧ 40%)
15 | ≥ 40 | ≤ 100 | ≤ 100 | N#Cc1c(/C(=C(/c2ccccc2)C2CC2)c2ccc(/C=C/C(=O)O)cc2)ccc2[nH]ncc12 [Example 13, (E)-3-(4-((E)-1-(4-Cyano-1H-indazol-5-yl)-2-cyclopropyl-2-phenylvinyl)phenyl)acrylic acid] | ++ (++ = a single % value ≧ 40%)
16 | ≥ 40 | ≤ 100 | ≤ 100 | N#Cc1c(/C(=C(/c2ccccc2)C2CC2)c2ccc(/C=C/C(=O)O)cc2)ccc2[nH]nc(F)c12 [Example 14, (E)-3-(4-((E)-1-(4-Cyano-3-fluoro-1H-indazol-5-yl)-2-cyclopropyl-2-phenylvinyl)phenyl)acrylic acid] | ++ (++ = a single % value ≧ 40%)
17 | ≥ 40 | ≤ 100 | ≤ 100 | O=C(O)/C=C/c1ccc(/C(=C(\c2ccccc2)C2CCC2)c2ccc3[nH]nnc3c2)cc1 [Example 17, (E)-3-(4-((E)-1-(1H-Benzo[d][1,2,3]triazol-5-yl)-2-cyclobutyl-2-phenylvinyl)phenyl)acrylic acid] | ++ (++ = a single % value ≧ 40%)
18 | ≥ 40 | ≤ 100 | ≤ 100 | O=C(O)/C=C/c1ccc(/C(=C(\c2ccccc2)C2CCC2)c2cccc3[nH]ncc23)cc1 [Example 18, (E)-3-(4-((E)-2-Cyclobutyl-1-(1H-indazol-4-yl)-2-phenylvinyl)phenyl)acrylic acid] | ++ (++ = a single % value ≧ 40%)
